{"source": "patent US20020172704A1", "about": "“Planting method and biodegradable material for preventing pests” (priority 2001, published 2002)", "test_system": "golden apple snail (Pomacea canaliculata (Lamarck))", "assay": "Hurting rate and death rate of golden apple snails on SDS-added paper mat round boards on wet paddy soil in Petri dishes", "assay_type": "in vivo", "settings": "for Death Rate (%) / Hurting Rate (%): average after three days, paper mat", "experimental": "The glutinous solutions with different SDS densities (100, 500, 1000, 2000, 5000, 7500, and 10000 ppm) are prepared in advance, and the paper mat made by YUEN FOONG YU PAPER MFG Co., Ltd is also cut into many round boards having a diameter of 9 cm.\nThe test is done by the following steps. At first, each of the round boards is dripped with 2 ml of one of the glutinous solutions respectively. The round boards are dried in an oven at a temperature of 30° C. Then, the soil taken from the paddy field is added with water to simulate the natural environment. Each of the dried SDS-added round boards is bedded on 50 g of the wet soil in a Petri dish respectively. Finally, each of the dishes is added with 10 ml water and put 10 golden apple snails thereon.\nTwo other groups are prepared for comparison. […] All the three groups are observed in a greenhouse.", "key": {"[1]": {"settings": "Conc. of SDS solution 100 ppm, snail size 3.28 ± 0.43 g/per snail"}, "[2]": {"settings": "Conc. of SDS solution 500 ppm, snail size 3.28 ± 0.43 g/per snail"}, "[3]": {"settings": "Conc. of SDS solution 1000 ppm, snail size 3.28 ± 0.43 g/per snail"}, "[4]": {"settings": "Conc. of SDS solution 2500 ppm, snail size 0.82 ± 0.26 g/per snail"}, "[5]": {"settings": "Conc. of SDS solution 5000 ppm, snail size 0.82 ± 0.26 g/per snail"}, "[6]": {"settings": "Conc. of SDS solution 7500 ppm, snail size 0.82 ± 0.26 g/per snail"}, "[7]": {"settings": "Conc. of SDS solution 10000 ppm, snail size 0.82 ± 0.26 g/per snail"}}, "note": "Marks after values point to notes of the source that are not given here."}
{"smiles": "CCCCCCCCCCCCOS(=O)(=O)[O-].[Na+]", "note": "[SDS, sodium dodecyl sulfate]", "values": [{"measurement": "Death Rate (%)", "setting": "[1]", "result": 0.00, "unit": "%"}, {"measurement": "Hurting Rate (%)", "setting": "[1]", "result": "3.33* %"}, {"measurement": "Death Rate (%)", "setting": "[2]", "result": 3.33, "unit": "%"}, {"measurement": "Hurting Rate (%)", "setting": "[2]", "result": 6.67, "unit": "%"}, {"measurement": "Death Rate (%)", "setting": "[3]", "result": 10.00, "unit": "%"}, {"measurement": "Hurting Rate (%)", "setting": "[3]", "result": 23.33, "unit": "%"}, {"measurement": "Death Rate (%)", "setting": "Conc. of SDS solution 2000 ppm, snail size 3.28 ± 0.43 g/per snail", "result": 10.00, "unit": "%"}, {"measurement": "Death Rate (%)", "setting": "[4]", "result": 100.00, "unit": "%"}, {"measurement": "Hurting Rate (%)", "setting": "[4]", "result": "100.00* %"}, {"measurement": "Death Rate (%)", "setting": "[5]", "result": 100.00, "unit": "%"}, {"measurement": "Hurting Rate (%)", "setting": "[5]", "result": 100.00, "unit": "%"}, {"measurement": "Death Rate (%)", "setting": "[6]", "result": 100.00, "unit": "%"}, {"measurement": "Hurting Rate (%)", "setting": "[6]", "result": 100.00, "unit": "%"}, {"measurement": "Death Rate (%)", "setting": "[7]", "result": 100.00, "unit": "%"}, {"measurement": "Hurting Rate (%)", "setting": "[7]", "result": 100.00, "unit": "%"}, {"measurement": "hurting rate", "setting": "smaller snails, SDS concentrations above 2500 ppm (summary of Table 2)", "result": "~100.00", "unit": "%"}]}
